Assay results: US20160280651A1, “COMPOUNDS THAT INDUCE ABA RESPONSES” (THE REGENTS OF THE UNIVERSITY OF CALIFORNIA, priority 2013, published 2016)

Key:
[1] = system: Arabidopsis seeds; experiment: Arabidopsis germination inhibition analysis, Example 12; type: in vivo; conditions: assessed after 3 days, dark
Procedure: To analyse the effect of compounds on inhibition of germination, Arabidopsis seeds after-ripened for about 4 weeks were surface-sterilized with a solution containing 5% NaClO and 0.05% Tween-20 for 10 minutes, and rinsed with water four times. Sterilized seeds were suspended with 0.1% agar and sowed on 0.8% solidified agar medium containing ½ Murashige and Skoog (MS) salts (Sigma-Aldrich) in the presence of the relevant treatment, stored at 4° C. for 4 days, and then transferred to 22° C. under the dark conditions. Germination was assessed after 3 days.

[2] = system: Chlamydomonas; experiment: Colony growth of Chlamydomonas with and without salinity and osmotic stress; type: in vivo
Procedure: FIG. 17A-FIG. 17D. The effect of ABA and its agonists in Physcomitrella patens and Chlamydomonas. Protonemal growth images (A) and quantitative analysis (B) of the effects of ABA and agonists on Phsycomitrella patens. Protonema were grown on 200 μM of specific test chemical for 10 days. […] Pyrabactin bleached protonema. (C) The expression of ABA-responsive genes of Physcomitrella patens. Protonema were treated with 200 μM chemical solutions for 3 h. (D) Colony growth of Chlamydomonas on the chemical with salinity stress and osmotic stress. There was no effect of ABA and LC66C6 on the Chlamydomonas growth with and without stresses.

[3] = system: ABA-responsive genes; experiment: Quantitative RT-PCR of ABA-responsive genes in Arabidopsis; type: in vivo
Procedure: FIG. 9A-FIG. 9D. LC66C6 induces numerous ABA-responsive genes. […] Ten-day old seedlings were treated with carrier solvent (DMSO) or either 25 μM ABA, pyrabactin or LC66C6 for 8 hours. Total RNA was then prepared labeled and hybridized to ATH1 microarrays. Data plotted are log 2 transformed average expression values for ˜13K probes that were detectable across all experiments. Data shown are averages determined from triplicate biological replicates. (C) and (D) show the expression of a reporter gene in different plant tissues after treatment with vehicle (DMSO), pyrabactin, LC66C6, or (+)-ABA.
FIG. 10. ABA-responsive gene expression in PYR/PYL single mutants. The response of the ABA-responsive MAPKKK18, RD29A, and RD29B mRNAs to LC66C6, ABA and pyrabactin were characterized in the Col and Ler ecotypes and the pyr1, pyl1, ply2, pyl3 and pyl4 single mutant genotypes.
FIG. 11. LC66C6 induces ABA-responsive gene expression in wild-type plants, abi1-1 and PYR/PYL quadruple mutants.
Total RNA was isolated using Plant RNA purification reagent (Invitrogen, USA) according to the manufacturer's instructions. cDNA was synthesized from 1 μg of total RNA using the QantiTec reverse transcription kit (Qiagen, USA). Real-time PCR using Maxima® SYBR Green/Fluorescein qPCR Master Mix (Fermentas) was performed with the iQ5 real-time PCR detection system (Bio-Rad, Hercules, Calif.). The relative amounts of target mRNAs were determined using the relative standard curve method and were normalized by relative amount of internal control mRNA. Biological triplicate experiments were performed.

[4] = system: ABI2 with PYR/PYL receptors; experiment: Receptor-mediated PP2C inhibition assay with ABI2, Example 1; type: biochemical, Arabidopsis; conditions: 10 μM; in the presence of all ABA receptors tested
Procedure: (§1) FIG. 2A-FIG. 2C. Novel ABA agonists inhibit PPC2 activity through multiple PYR/PYL. (A) Chemical structure of naturally occurring (+)-ABA and selected ABA agonists. (B) and (C) HAB1, ABU, and ABI2 PP2C enzyme activity based ABA-agonist assays for various receptors in the presence or absence of 10 μM each test chemical.
(§2) HAB1 and PYL proteins were expressed and purified as described previously (Park S Y, et al. (2009) Abscisic Acid Inhibits Type 2C Protein Phosphatases via the PYR/PYL Family of START Proteins. Science 324(5930):1068-1071), with minor modifications. To obtain GST-HAB1, -ABI1 and -ABI2 fusion proteins, the HAB1 cDNA was cloned into pGex-2T whereas ABI1 and ABI2 cDNAs were cloned into the vector pGex-4T-1. […] After 16 hours incubation at 15° C., cells were harvested and recombinant proteins were purified on glutathione agarose as described previously (Park S Y, et al. (2009). To obtain 6×His-PYL receptor fusion proteins, receptor cDNAs for all 13 ABA receptors were cloned into the vector pET28 and expressed and purified as described previously (Mosquna A, et al. (2011) Potent and selective activation of abscisic acid receptors in vivo by mutational stabilization of their agonist-bound conformation. PNAS 108(51):20838-20843); this yielded soluble and functional protein (assessed using receptor-mediated PP2C inhibition assays) for all receptors except PYL7, PYL11 and PYL12. […]

[5] = system: ABI1 with PYR/PYL receptors; experiment: Receptor-mediated PP2C inhibition assay with ABI1, Example 1; type: biochemical, Arabidopsis; conditions: 10 μM; in the presence of all ABA receptors tested
Procedure: as §1, §2

[6] = system: HAB1 with PYR/PYL receptors; experiment: Receptor-mediated PP2C inhibition assay with HAB1, Example 1; type: biochemical, Arabidopsis; conditions: 10 μM; in the presence of all ABA receptors tested
Procedure: as §1
FIG. 3A-FIG. 3B. (A) Receptor-mediated dose-dependent inhibition of PP2C enzyme activity by ABA agonists and analogs. (B) Observed compound IC50 values in enzymatic HAB1 PP2C-based ABA-agonist assays.
FIG. 4A-FIG. 4B. Quinabactin activates multiple ABA receptors. (A) Chemical structures of ABA, pyrabactin and quinabactin. (B) Chemical-dependent inhibition of HAB1 by ABA receptors. IC50 values (nM) were determined as described in the methods using 50 nM HAB1, 50 nM and multiple concentrations of compounds; full dose response curves are provided as in FIG. 3. (nd) correspond to receptors that were not produced as active proteins. The phylogenetic tree is a Neighbor-Joining tree made using the JTT distance matrix in MEGA5 (Tamura K, et al. (2011) MEGA5: Molecular Evolutionary Genetics Analysis Using Maximum Likelihood, Evolutionary Distance, and Maximum Parsimony Methods. Molecular Biology and Evolution 28(10):2731-2739).
HAB1 and PYL proteins were expressed and purified as described previously (Park S Y, et al. (2009) Abscisic Acid Inhibits Type 2C Protein Phosphatases via the PYR/PYL Family of START Proteins. Science 324(5930):1068-1071), with minor modifications. To obtain GST-HAB1, -ABI1 and -ABI2 fusion proteins, the HAB1 cDNA was cloned into pGex-2T whereas ABI1 and ABI2 cDNAs were cloned into the vector pGex-4T-1. Expression was conducted in BL21[DE3]pLysS host cells. Transformed cells were pre-cultured overnight, transferred to LB medium and cultured at 30° C. to culture A600 of ˜0.5. The culture was then cooled on ice and MnCl2 added to 4 mM and IPTG added to 0.3 mM. After 16 hours incubation at 15° C., cells were harvested and recombinant proteins were purified on glutathione agarose as described previously (Park S Y, et al. (2009). To obtain 6×His-PYL receptor fusion proteins, receptor cDNAs for all 13 ABA receptors were cloned into the vector pET28 and expressed and purified as described previously (Mosquna A, et al. (2011) Potent and selective activation of abscisic acid receptors in vivo by mutational stabilization of their agonist-bound conformation. PNAS 108(51):20838-20843); this yielded soluble and functional protein (assessed using receptor-mediated PP2C inhibition assays) for all receptors except PYL7, PYL11 and PYL12. These three receptors were therefore alternatively expressed as maltose binding (MBP) fusion proteins using the vector pMAL-c; expression of these constructs was carried out in BL21 [DE3]pLysS host strain with the same induction conditions used for GST-HAB1. Recombinant MBP-PYL fusion proteins were purified from sonicated and cleared lysate using amylose resin (New England Biolab, Inc.) using the manufacturers purification instructions. This effort yielded an active MBP-PYL11 fusion protein, but failed for PYL7 and PYL12.
PP2C activity assays using recombinant receptors and PP2Cs were carried out as follows: Purified proteins were pre-incubated in 80 μl assay buffer containing 10 mM MnCl2, 3 μg bovine serum albumin and 0.1% 2-mercaptoethanol with ABA or ABA agonist for 30 minutes at 22° C. Reactions were started by adding 20 μL of a reaction solution containing 156 mM Tris-OAc, pH 7.9, 330 mM KOAc and 5 mM 4-methylumbelliferyl phosphate after which fluorescence measurements were immediately collected using an excitation filter 355 nm and an emission filter 460 nm on a Wallac plate reader. Reactions contained 50 nM PP2C and 100 nM PYR/PYL proteins, respectively.

| SMILES | Percentage germination of Arabidopsis seeds ([1]; 0.2 uM) [%] | Percentage germination of Arabidopsis seeds ([1]; 1 uM) [%] | Percentage germination of Arabidopsis seeds ([1]; 5 uM) [%] | Percentage germination of Arabidopsis seeds ([1]; 25 uM) [%] | Growth of Chlamydomonas [2] | Induction of MAPKKK18, RD29A and RD29B mRNAs ([3]; Col and Ler ecotypes and pyr1, pyl1, pyl2, pyl3, pyl4 single mutants) | Expression of ABF3, GBF3, NCED3 and RD29A ([3]; Col wild-type plants) | Inhibition of PP2C enzyme activity of ABI2 [4] [%] | Inhibition of PP2C enzyme activity of ABI1 [5] [%] | Inhibition of PP2C enzyme activity of HAB1 [6] [%] |
| --- | --- | --- | --- | --- | --- | --- | --- | --- | --- | --- |
| C=CCN1C(=O)CCc2cc(NS(=O)(=O)Cc3ccc(C)cc3)cc(C)c21 | 100 | 100 | 100 | 0 | – | – | – | – | – | – |
| CCCN1C(=O)CCc2cc(NS(=O)(=O)Cc3ccc(C)cc3)ccc21 [drawing 36] | 100 | 46 | 0 | 0 | – | – | – | – | – | – |
| CC1=CC(=O)CC(C)(C)C1(O)/C=C/C(C)=C\C(=O)O (single isomer, unassigned; (+)) [(+)-ABA, Abscisic acid, reference compound] | – | – | – | – | no effect | induced | induced expression of ABF3, GBF3, NCED3, and RD29A in a dose dependent manner | > 90 | > 90 | > 90 |
| C=CCN1C(=O)C(C)Cc2cc(NS(=O)(=O)Cc3ccc(C)cc3)ccc21 (stereo not shown) | 99 | 100 | 100 | 71 | – | – | – | – | – | – |
| C#CCN1C(=O)CCc2cc(NS(=O)(=O)Cc3ccc(Br)cc3)cc(C)c21 | 100 | 100 | 100 | 0 | – | – | – | – | – | – |
| C#CCN1C(=O)CCc2cc(NS(=O)(=O)Cc3ccc(OC(F)(F)F)cc3)cc(C)c21 | 100 | 100 | 68 | 0 | – | – | – | – | – | – |
| C=CCN1C(=O)CCc2cc(NS(=O)(=O)Cc3ccc(Cl)cc3)cc(C)c21 | 100 | 100 | 100 | 0 | – | – | – | – | – | – |
| C#CCN1C(=O)CCc2cc(NS(=O)(=O)Cc3ccc(C)cc3)cc(C)c21 | 100 | 100 | 100 | 0 | – | – | – | – | – | – |
| C=CCN1C(=O)C(C)Cc2cc(NS(=O)(=O)Cc3ccc(OC(F)(F)F)cc3)ccc21 (stereo not shown) | 100 | 100 | 100 | 14 | – | – | – | – | – | – |
| C=CCN1C(=O)CCc2cc(NS(=O)(=O)Cc3ccc(OC(F)(F)F)cc3)cc(C)c21 | 100 | 100 | 30 | 0 | – | – | – | – | – | – |
| C=CCN1C(=O)CCc2cc(NS(=O)(=O)Cc3ccc(Br)cc3)cc(C)c21 | 100 | 100 | 96 | 0 | – | – | – | – | – | – |
